Measurements taken from publication PMC13476069, “Cryo-EM structure of the bicarbonate receptor GPR30” (eLife, 2026).

Tests used:
[1] = tested on: mock HEK293 cells; conditions: mock stable HEK293 cells; NaHCO3; normalized to 50 µM ATP; four-parameter fit
Procedure: (§1) HEK293A cells (Thermo Fisher Scientific, Cell lines are authenticated by the supplier. No additional authentication was performed by the authors in this study. Mycoplasma contamination is not tested.) were maintained at 37°C and 5% CO2. […] Stable cell lines were established through antibiotic drug selection. The HEK293A cells were transfected with the N-terminal HA-tagged wild-type and mutant Gpr30 and maintained in the culture medium containing 1 mg/ml of G418.
(§2) Stable HEK293 cells (2×10^4 cells/well) were seeded into a black wall and clear bottom 96-well plate 24 hr before the assay. […] The cells were washed twice with HEPES buffer. The cells were stimulated with indicated concentrations of NaHCO3 and 50 µM ATP at 37°C and 0.03% CO2. The fluorescence intensity was analyzed using FlexStation 3 (Molecular Devices, Ex/Em = 490/525 nm). The difference between the maximum and minimum fluorescent values during 15–60 s was normalized by those with ATP stimulation. Nonlinear regression (four-parameter) was used for curve fitting, and EC50 and Top (maximum response) were calculated.
(§3) Nonlinear regression (four-parameter) was used for curve-fitting over the data shown in Figure 3F, and EC50 and Top (maximum response) were calculated. The values of cell surface and total expression are derived from Figure 3.—figure supplement 1 and 3, respectively.

[2] = target: human GPR30 C207^ECL2A mutant (Homo sapiens, UniProt Q99527, C207A)
Text: (§4) Human Gpr30 cDNA was obtained from human hepatoblastoma-derived HepG2 cells. The coding sequences of human Gpr30 were inserted into the multi-cloning site of the plasmid vector pCXN2, which was generated in our laboratory via modification of pCAGGS, between the KpnI and EcoRI sites. The […] HA-tagged Gpr30 was amplified using a reverse primer containing the HA sequence. One amino acid mutation of human GPR30 was generated as follows: the targeted amino acid was changed to alanine (GCC) using a two-step PCR method with the QuikChange Primer Design Program by Agilent (https://www.agilent.com/store/primerDesignProgram.jsp), and the coding sequence with each mutation was inserted into the multi-cloning site of pCXN2 between the KpnI and EcoRI sites. The mutations generated were D111A, E121A, R122A, D125A, S134A, Q138A, D210A, Q215A, E218A, N276A, Q296A, C207A, P71A, and H307A.
as §1, §2, §3

[3] = target: human GPR30 D111^2.56A mutant (Homo sapiens, UniProt Q99527, D111A); conditions: stable HEK293, HA-tagged D111^2.56A, NaHCO3, four-parameter fit
Text: as §4, §1, §2, §3

[4] = target: human GPR30 D125^ECL1A mutant (Homo sapiens, UniProt Q99527, D125A)
Text: as §4, §1, §2, §3

[5] = target: human GPR30 D210^ECL2A mutant (Homo sapiens, UniProt Q99527, D210A)
Text: as §4, §1, §2, §3

[6] = target: human GPR30 E121^ECL1A mutant (Homo sapiens, UniProt Q99527, E121A); conditions: stable HEK293, HA-tagged E121^ECL1A, NaHCO3, four-parameter fit
Text: as §4, §1, §2, §3

[7] = target: human GPR30 E218^5.42A mutant (Homo sapiens, UniProt Q99527, E218A); conditions: stable HEK293, HA-tagged E218^5.42A, NaHCO3, four-parameter fit
Text: as §4, §1, §2, §3

[8] = target: human GPR30 N276^6.52A mutant (Homo sapiens, UniProt Q99527, N276A); conditions: stable HEK293, HA-tagged N276^6.52A, NaHCO3, four-parameter fit
Text: as §4, §1, §2, §3

[9] = target: human GPR30 P71^1.44A mutant (Homo sapiens, UniProt Q99527, P71A)
Text: as §4, §1, §2, §3

[10] = target: T1, human GPR30 Q138^3.33A mutant (Homo sapiens, UniProt Q99527, Q138A)
Text: as §4, §1, §2, §3

[11] = target: human GPR30 Q215^5.39A mutant (Homo sapiens, UniProt Q99527, Q215A); conditions: stable HEK293, HA-tagged Q215^5.39A, NaHCO3, four-parameter fit
Text: as §4, §1, §2, §3

[12] = target: human GPR30 Q296^ECL3A mutant (Homo sapiens, UniProt Q99527, Q296A); conditions: stable HEK293, HA-tagged Q296^ECL3A, NaHCO3, four-parameter fit
Text: as §4, §1, §2, §3

[13] = target: human GPR30 R122^ECL1A mutant (Homo sapiens, UniProt Q99527, R122A); conditions: stable HEK293, HA-tagged R122^ECL1A, NaHCO3, four-parameter fit
Text: as §4, §1, §2, §3

[14] = target: human GPR30 S134^3.29A mutant (Homo sapiens, UniProt Q99527, S134A); conditions: stable HEK293, HA-tagged S134^3.29A, NaHCO3, four-parameter fit
Text: as §4, §1, §2, §3

[15] = target: T2, human GPR30 wild-type (WT) (Homo sapiens, UniProt Q99527); conditions: stable HEK293, HA-tagged WT GPR30, NaHCO3, four-parameter fit
Text: as §4, §1, §2, §3

[16] = target: T1, human GPR30 Q138^3.33A mutant; conditions: effect of Q138^3.33 mutation; ref Jo-Watanabe et al., 2024; cited from earlier work
[17] = target: T2, human GPR30 wild-type (WT); conditions: physiological concentration of bicarbonate ions; ref Jo-Watanabe et al., 2024; cited from earlier work
[18] = tested on: GPR30 E115^2.61 mutant; conditions: effect of E115^2.61 mutation; ref Jo-Watanabe et al., 2024; cited from earlier work
[19] = tested on: GPR30 H307^7.36 mutant; conditions: effect of H307^7.36 mutation; ref Jo-Watanabe et al., 2024; cited from earlier work
[20] = stable HEK293, HA-tagged D125^ECL1A, NaHCO3, four-parameter fit
[21] = stable HEK293, HA-tagged D210^ECL2A, NaHCO3, four-parameter fit
[22] = Q138^3.33A vs wild-type, calcium assay
[23] = stable HEK293, HA-tagged Q138^3.33A, NaHCO3, four-parameter fit

Sequence of human GPR30 N276^6.52A mutant (Q99527 whole entry N276A): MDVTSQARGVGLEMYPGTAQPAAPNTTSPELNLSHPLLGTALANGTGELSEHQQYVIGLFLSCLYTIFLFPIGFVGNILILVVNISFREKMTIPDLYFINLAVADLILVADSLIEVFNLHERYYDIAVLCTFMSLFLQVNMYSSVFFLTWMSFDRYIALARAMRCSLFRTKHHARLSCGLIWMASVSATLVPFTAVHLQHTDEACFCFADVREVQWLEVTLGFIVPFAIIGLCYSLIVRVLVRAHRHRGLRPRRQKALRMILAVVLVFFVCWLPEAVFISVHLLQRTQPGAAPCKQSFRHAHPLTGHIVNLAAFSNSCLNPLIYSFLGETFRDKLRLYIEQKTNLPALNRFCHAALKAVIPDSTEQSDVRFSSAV
T2 sequence (Q99527 whole entry): as the sequence (Q99527 whole entry N276A) above, with A276N counted along it
Sequence of human GPR30 D111^2.56A mutant (Q99527 whole entry D111A): as the sequence (Q99527 whole entry N276A) above, with D111A, A276N counted along it
Sequence of human GPR30 D125^ECL1A mutant (Q99527 whole entry D125A): as the sequence (Q99527 whole entry N276A) above, with D125A, A276N counted along it
Sequence of human GPR30 D210^ECL2A mutant (Q99527 whole entry D210A): as the sequence (Q99527 whole entry N276A) above, with D210A, A276N counted along it
T1 sequence (Q99527 whole entry Q138A): as the sequence (Q99527 whole entry N276A) above, with Q138A, A276N counted along it
Sequence of human GPR30 E218^5.42A mutant (Q99527 whole entry E218A): as the sequence (Q99527 whole entry N276A) above, with E218A, A276N counted along it
Sequence of human GPR30 R122^ECL1A mutant (Q99527 whole entry R122A): as the sequence (Q99527 whole entry N276A) above, with R122A, A276N counted along it
Sequence of human GPR30 E121^ECL1A mutant (Q99527 whole entry E121A): as the sequence (Q99527 whole entry N276A) above, with E121A, A276N counted along it
Sequence of human GPR30 Q296^ECL3A mutant (Q99527 whole entry Q296A): as the sequence (Q99527 whole entry N276A) above, with A276N, Q296A counted along it
Sequence of human GPR30 S134^3.29A mutant (Q99527 whole entry S134A): as the sequence (Q99527 whole entry N276A) above, with S134A, A276N counted along it
Sequence of human GPR30 Q215^5.39A mutant (Q99527 whole entry Q215A): as the sequence (Q99527 whole entry N276A) above, with Q215A, A276N counted along it
Sequence of human GPR30 C207^ECL2A mutant (Q99527 whole entry C207A): as the sequence (Q99527 whole entry N276A) above, with C207A, A276N counted along it
Sequence of human GPR30 P71^1.44A mutant (Q99527 whole entry P71A): as the sequence (Q99527 whole entry N276A) above, with P71A, A276N counted along it

SMILES: O=C(O)O [bicarbonate]
- Top (maximum response) [1]: 0.08132
- bicarbonate-dependent calcium responses ([2]; effect of C207^ECL2A mutation, stable HEK293): abolished
- Top (maximum response) ([2]; stable HEK293, HA-tagged C207^ECL2A, NaHCO3, normalized to 50 µM ATP, four-parameter fit): 0.06277
- EC50 [3]: 2.35 mM
- LogEC50 [3]: 0.3703
- Top (maximum response) ([3]; normalized to 50 µM ATP): 1.244
- bicarbonate-dependent calcium responses ([4]; effect of D125^ECL1A mutation, stable HEK293): abolished
- EC50 [4, 20]: Unstable
- LogEC50 [4, 20]: Unstable
- Top (maximum response) ([4]; stable HEK293, HA-tagged D125^ECL1A, NaHCO3, normalized to 50 µM ATP, four-parameter fit): 0.0868
- maximum response relative to GPR30 wild-type ([5]; D210^ECL2A vs wild-type, calcium assay): half
- reactivity to bicarbonate (calcium response) ([5]; effect of D210^ECL2A mutation, stable HEK293): reduced reactivity
- EC50 [5, 21]: 5.41 mM
- LogEC50 [5, 21]: 0.7335
- Top (maximum response) ([5]; stable HEK293, HA-tagged D210^ECL2A, NaHCO3, normalized to 50 µM ATP, four-parameter fit): 0.6256
- EC50 [6]: 4.71 mM
- LogEC50 [6]: 0.6733
- Top (maximum response) ([6]; normalized to 50 µM ATP): 0.9457
- EC50 [7]: 3.72 mM
- LogEC50 [7]: 0.5701
- Top (maximum response) ([7]; normalized to 50 µM ATP): 0.9426
- EC50 [8]: 2.89 mM
- LogEC50 [8]: 0.4605
- Top (maximum response) ([8]; normalized to 50 µM ATP): 0.948
- bicarbonate-dependent calcium responses ([9]; effect of P71^1.44A mutation, stable HEK293): abolished
- Top (maximum response) ([9]; stable HEK293, HA-tagged P71^1.44A, NaHCO3, normalized to 50 µM ATP, four-parameter fit): 0.1079
- EC50 compared with wild-type GPR30 [10, 22]: higher
- maximum response relative to GPR30 wild-type [10, 22]: one-third
- reactivity to bicarbonate (calcium response) ([10]; effect of Q138^3.33A mutation, stable HEK293): reduced reactivity
- EC50 [10, 23]: 10.8 mM
- LogEC50 [10, 23]: 1.033
- Top (maximum response) ([10]; stable HEK293, HA-tagged Q138^3.33A, NaHCO3, normalized to 50 µM ATP, four-parameter fit): 0.4166
- EC50 [11]: 4.51 mM
- LogEC50 [11]: 0.6544
- Top (maximum response) ([11]; normalized to 50 µM ATP): 0.8471
- EC50 [12]: 3.09 mM
- LogEC50 [12]: 0.4903
- Top (maximum response) ([12]; normalized to 50 µM ATP): 0.9637
- EC50 [13]: 3.46 mM
- LogEC50 [13]: 0.5393
- Top (maximum response) ([13]; normalized to 50 µM ATP): 0.877
- EC50 [14]: 4.97 mM
- LogEC50 [14]: 0.6966
- Top (maximum response) ([14]; normalized to 50 µM ATP): 0.8079
- EC50 [15]: 3.83 mM
- LogEC50 [15]: 0.5838
- Top (maximum response) ([15]; normalized to 50 µM ATP): 1.155
- bicarbonate-dependent calcium response [16]: abolish
- activation of GPR30, Gq-coupled calcium responses [17]: activates
- bicarbonate-dependent calcium response [18]: abolish
- bicarbonate-dependent calcium response [19]: abolish
